Data published in US12172975B2, “1H-indazole carboxamides as receptor-interacting protein kinase 1 inhibitors (RIPK1)” (BRISTOL-MYERS SQUIBB COMPANY, priority 2018, dated 2024).
Read-outs that look alike come from different tables or passages of the source.

Key:
[1] = tested on: MLKL phosphorylation in HT29-L23 human colorectal adenocarcinoma cells; test: MLKL Phosphorylation High-Content Assay; type: cell-based; details: necroptosis induced with TNFα, SMAC mimetic and Z-VAD, 6 h, read-out: pMLKL (IC50)
Summary of the method: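 HT29-L23 cells were induced to necroptosis with TNFα (35 ng/mL), SMAC mimetic (700 nM) and Z-VAD (140 nM) for 6 h at 37 °C. Phospho-MLKL (S358) immunofluorescence was imaged and quantified per cell; maximal inhibition set by Nec-1s (6.25 μM), and IC50/Ymax from 4-parameter logistic fit.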

[2] = target: His-GST-TVMV-hRIPK1 (1-324) (Homo sapiens (Human), UniProt Q13546); test: biochemical
Chain of His-GST-TVMV-hRIPK1 (1-324) (Q13546 1-324): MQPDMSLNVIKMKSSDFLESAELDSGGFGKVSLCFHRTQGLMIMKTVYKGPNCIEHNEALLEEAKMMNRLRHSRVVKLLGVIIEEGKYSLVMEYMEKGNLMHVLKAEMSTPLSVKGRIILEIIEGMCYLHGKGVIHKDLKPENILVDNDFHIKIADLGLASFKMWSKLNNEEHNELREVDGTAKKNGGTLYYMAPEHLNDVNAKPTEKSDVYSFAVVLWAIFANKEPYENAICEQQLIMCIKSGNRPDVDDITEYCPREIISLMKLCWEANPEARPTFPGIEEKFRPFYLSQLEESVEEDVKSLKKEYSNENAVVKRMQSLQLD

SMILES	IC50 [1]	IC50 [2]	IC50 ([1]; Homo sapiens)
[2H]C([2H])([2H])Oc1ncc(-c2ccc3c(C(=O)NC4CC4)n[nH]c3c2)cc1C(=O)N[C@@H](C)CC(=O)OC(C)(C)C [Example 195, tert-butyl (3S)-3-({5-[3-(cyclo-propylcarbamoyl)-1H-indazol-6-yl]-2-(deutero)methoxypyridin-3-yl}formamido)butanoate]	39 nM	36 nM	
CCC(c1ccccc1)n1nnc(-c2cc(-c3ccc4c(C(=O)NC)n[nH]c4c3)cnc2OC)n1 (single isomer, unassigned) [Example 18-2, 6-(6-methoxy-5-(2-(l-phenylpropyl)-2H-tetrazol-5-yl)pyridin-3-yl)-N-methyl-1H-indazole-3-carboxamide]	310 nM	100 nM	
[2H]C([2H])([2H])Oc1ncc(-c2ccc3c(C(=O)NC([2H])([2H])C([2H])([2H])[2H])n[nH]c3c2)cc1C(=O)N[C@@H](C)c1cc(OC(F)(F)F)ccc1F [Example 224, N-[(1,1,2,2,2-deutero)ethyl]-6-(5-{[(1S)-1-[2-fluoro-5-(trifluorometh-oxy)phenyl]ethyl]carbamoyl}-6-(deutero)methoxypyridin-3-yl)-1H-indazole-3-carboxamide]		17 nM	12 nM
[2H]C([2H])([2H])Oc1ncc(-c2ccc3c(C(=O)NC([2H])([2H])C([2H])([2H])[2H])n[nH]c3c2)cc1C(=O)N[C@@H](C)CC(=O)OC(C)(C)C [Example 238, tert-butyl (3S)-3-{[5-(3-{[(1,1,2,2,2-deutero)ethyl]carbamoyl}-1H-indazol-6-yl)-2-(deutero)methoxy-pyridin-3-yl]formamido}butanoate]		47 nM	41 nM
[2H]C([2H])([2H])NC(=O)c1n[nH]c2cc(-c3cnc(OC)c(-c4nnn(C(C)c5ccc(F)cc5)n4)c3)ccc12 (single isomer, unassigned) [Example 19-2, 6-(5-(2-(1-(4-fluorophenyl)ethyl)-2H-tetrazol-5-yl)-6-methoxypyridin-3-yl)-N-(methyl-d3)-1H-indazole-3-carboxamide]	64 nM	100 nM	
[2H]C([2H])([2H])Oc1ncc(-c2ccc3c(C(=O)NC([2H])([2H])C([2H])([2H])[2H])n[nH]c3c2)cc1C(=O)N[C@H](C)c1cccc(OC(F)(F)F)c1 [Example 231, N-[(1,1,2,2,2-deutero)ethyl]-6-[6-(deutero)methoxy-5-{[(1R)-1-[3-(trifluoromethoxy)phenyl]ethyl]-carbamoyl}pyridin-3-yl]-1H-indazole-3-carboxamide]		48 nM	10 nM
[2H]C([2H])([2H])Oc1ncc(-c2ccc3c(C(=O)NC([2H])([2H])C([2H])([2H])[2H])n[nH]c3c2)cc1C(=O)NCC[C@@H](O)c1ccc(Cl)cc1 [Example 237, 6-(5-{[(3R)-3-(4-chlorophenyl)-3-hydroxypropyl]carbamoyl}-6-(deutero)methoxypyridin-3-yl)-N-[(1,1,2,2,2-deutero)ethyl]-1H-indazole-3-carboxamide]		6.3 nM	14 nM
CNC(=O)c1n[nH]c2cc(-c3cnc(OC)c(C(=O)NC4CCCC(c5ccccc5)C4)c3)ccc12 (single isomer, unassigned) [Example 21-3, 6-{6-methoxy-5-[(3-phenylcyclohexyl)carbamoyl]pyridin-3-yl}-N-methyl-1H-indazole-3-carboxamide]	8.1 nM	22 nM	
[2H]C([2H])([2H])N(C1CCC(NC(=O)c2n[nH]c3cc(-c4cnc(OC)c(C(=O)NCc5ccccc5OC(F)(F)F)c4)ccc23)CC1)C([2H])([2H])[2H] (stereo not shown) [Example 188, N-{4-[di(deutero)methylamino]-cyclohexyl}-6-[6-methoxy-5-({[2-(trifluoromethoxy)phenyl]-methyl}carbamoyl)pyridin-3-yl]-1H-indazole-3-carboxamide]		23 nM	130 nM
[2H]C([2H])([2H])Oc1ncc(-c2ccc3c(C(=O)NC([2H])([2H])C([2H])([2H])[2H])n[nH]c3c2)cc1C(=O)N[C@@H]1CN(C(=O)C2CC(F)(F)C2)C[C@@H]1F [Example 192, 6-(5-{[(3R,4S)-1-(3,3-difluorocyclo-butanecarbonyl)-4-fluoropyrrolidin-3-yl]carbamoyl}-6-(deutero)methoxy-pyridin-3-yl)-N-[(1,1,2,2,2-deutero)-ethyl]-1H-indazole-3-carboxamide]		110 nM	430 nM
[2H]C([2H])([2H])Oc1ncc(-c2ccc3c(C(=O)NC([2H])([2H])C([2H])([2H])[2H])n[nH]c3c2)cc1C(=O)N[C@H](C)c1cccc(C(F)(F)F)c1 [Example 229, N-[(1,1,2,2,2-deutero)ethyl]-6-[6-(deutero)methoxy-5-{[(1R)-1-[3-(trifluoromethyl)phenyl]ethyl]car-bamoyl}pyridin-3-yl]-1H-indazole-3-carboxamide]		210 nM	82 nM
[2H]C([2H])([2H])Oc1ncc(-c2ccc3c(C(=O)NC([2H])([2H])C([2H])([2H])[2H])n[nH]c3c2)cc1C(=O)N[C@@H](C)c1cccc(C(F)(F)F)c1 [Example 230, N-[(1,1,2,2,2-deutero)ethyl]-6-[6-(deutero)methoxy-5-{[(1S)-1-[3-(trifluoromethyl)phenyl]ethyl]car-bamoyl}pyridin-3-yl]-1H-indazole-3-carboxamide]		11 nM	55 nM
[2H]C([2H])([2H])Oc1ncc(-c2ccc3c(C(=O)NC([2H])([2H])C([2H])([2H])[2H])n[nH]c3c2)cc1C(=O)N[C@H](C)c1ccccc1C(F)(F)F [Example 235, N-[(1,1,2,2,2-deutero)ethyl]-6-[6-(deutero)methoxy-5-{[(1R)-1-[2-(trifluoromethyl)phenyl]ethyl]car-bamoyl}pyridin-3-yl]-1H-indazole-3-carboxamide]		34 nM	48 nM
[2H]C([2H])([2H])Oc1ncc(-c2ccc3c(C(=O)NC4CC4)n[nH]c3c2)cc1C(=O)N[C@H](C)c1ccccc1C(F)(F)F [Example 209, N-cyclopropyl-6-[6-(deutero)-methoxy-5-{[(1R)-1-[2-(trifluoro-methyl)phenyl]ethyl]carbamoyl}-pyridin-3-yl]-1H-indazole-3-carboxamide]		33 nM	74 nM
